Experimental data published in PubChem BioAssay (NCI).
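Dose response: 5 concentrations. Exposure: 48 h. Format: 96-well plates. Endpoint: linear interpolation; highest concentration if not reached. Here, GI50 denotes the concentration required for 50% inhibition of growth. TGI: concentration producing complete growth inhibition.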

Assays:
Assay in all cases: NCI anticancer screen, dose series, 48 h
SN12C renal = system: SN12C renal
PC-3 prostate = system: PC-3 prostate
A498 renal = system: A498 renal
OVCAR-4 ovarian = system: OVCAR-4 ovarian
IGROV1 ovarian = system: IGROV1 ovarian
SW-620 colon = system: SW-620 colon
OVCAR-5 ovarian = system: OVCAR-5 ovarian
NCI/ADR-RES ovarian = system: NCI/ADR-RES ovarian
NCI-H226 lung = system: NCI-H226 lung
NCI-H23 lung = system: NCI-H23 lung

SMILES	GI50 (SN12C renal)	TGI (SN12C renal)	GI50 (PC-3 prostate)	TGI (PC-3 prostate)	GI50 (A498 renal)	TGI (A498 renal)	GI50 (OVCAR-4 ovarian)	TGI (OVCAR-4 ovarian)	GI50 (IGROV1 ovarian)	TGI (IGROV1 ovarian)	GI50 (SW-620 colon)	TGI (SW-620 colon)	GI50 (OVCAR-5 ovarian)	TGI (OVCAR-5 ovarian)	GI50 (NCI/ADR-RES ovarian)	TGI (NCI/ADR-RES ovarian)	GI50 (NCI-H226 lung)	TGI (NCI-H226 lung)	GI50 (NCI-H23 lung)	TGI (NCI-H23 lung)
CC(C)(C)c1ccc(OCCCCCCN2CCNCC2)cc1	11.7 µM	27.8 µM	8.28 µM	24.4 µM	9.44 µM	23.1 µM	9.46 µM	23.9 µM	6.34 µM	22.6 µM	2.14 µM	5.19 µM	13.7 µM	29.4 µM	14.3 µM	33.7 µM	15.3 µM	34.3 µM	7.59 µM	23 µM
N=C(N)c1ccc(N2CCCN(c3ccc(C(=N)N)cc3)CC2)cc1	66.6 µM	> 100 µM	> 100 µM	> 100 µM	1.76 µM	9.62 µM	> 100 µM	> 100 µM	> 100 µM	> 100 µM	> 100 µM	> 100 µM	> 100 µM	> 100 µM	> 100 µM	> 100 µM	84.7 µM	> 100 µM	74.5 µM	> 100 µM
CC(C)(C)c1n[nH]c(=S)n(/N=C/c2ccc(F)c(Oc3ccccc3)c2)c1=O	48.5 µM	> 100 µM	38.6 µM	> 100 µM	27.8 µM	69.7 µM	23.8 µM	96.9 µM	35.9 µM	> 100 µM	34.7 µM	> 100 µM	54.3 µM	> 100 µM	35.1 µM	> 100 µM	> 100 µM	> 100 µM	37.7 µM	> 100 µM
C=CC(=O)N1CCN(c2ccc3cccc(NC(=O)c4cnc(C)cn4)c3n2)CC1	2.47 µM	16.2 µM	2.86 µM	26.5 µM	0.388 µM	4.19 µM	2.66 µM	> 100 µM	1.29 µM	15.2 µM	4.85 µM	34.9 µM	16.5 µM	81.7 µM	3.19 µM	> 100 µM	4.44 µM	22.3 µM	4.49 µM	19.5 µM
Cc1cc2c3ccc(C)[n+](C)c3ccc2n1C	2.69 µM	15.9 µM	1.26 µM	9.11 µM	0.357 µM	3.8 µM	4.18 µM	30.1 µM	3.14 µM	65.3 µM	2.15 µM	> 100 µM	5.42 µM	44 µM	> 100 µM	> 100 µM	12.9 µM	49.8 µM	2.04 µM	29.2 µM
CC1=C(CCC(C)N(C)Cc2ccc(OCCCN3CCCC3)cc2)C(C)(C)CCC1 (centres undefined)	11 µM	24.8 µM	3.28 µM	14.1 µM	10.4 µM	22.7 µM	7.76 µM	21.4 µM	4.03 µM	16.6 µM	3.01 µM	10.8 µM	3.2 µM	11.1 µM	10.4 µM	25 µM	18.8 µM	37.3 µM	10.4 µM	24.9 µM
CCN1CCC(CCOC)(CN2c3ccccc3Sc3ccc(Cl)cc32)C1 (centres undefined)	12 µM	28.2 µM	2.03 µM	4.74 µM	1.95 µM	7.39 µM	2.72 µM	8.66 µM	1.97 µM	3.99 µM	1.7 µM	3.24 µM	1.83 µM	3.88 µM	1.73 µM	3.89 µM	1.92 µM	4.67 µM	2.2 µM	6.16 µM
CNC(=O)OCc1c(COC(=O)NC)c(C)n(-c2ccc(Br)cc2)c1C	–	32.8 µM	–	65.8 µM	–	3.21 µM	–	–	–	19.1 µM	–	27.3 µM	–	77.2 µM	–	34.9 µM	–	4.59 µM	–	35.4 µM
C=CC(=O)N(C)[C@H]1C[C@H]2OC(C)(C1OC)n1c3ccccc3c3c4c(c5c6ccccc6n2c5c31)C(=O)NC4 (some centres undefined)	0.0521 µM	0.931 µM	0.182 µM	15.2 µM	0.0349 µM	0.182 µM	0.0939 µM	> 50 µM	–	–	0.0514 µM	0.792 µM	0.106 µM	> 50 µM	0.182 µM	3.59 µM	0.0963 µM	0.92 µM	0.158 µM	2.08 µM
c1ccc2c(c1)c(NCCCCN1CCCCC1)cc1c3ccccc3c(NCCCCN3CCCCC3)cc21	17.2 µM	35.4 µM	13.4 µM	78.5 µM	13.6 µM	32.9 µM	–	–	36.9 µM	> 100 µM	10.6 µM	> 100 µM	24.3 µM	48.9 µM	16.6 µM	38.4 µM	20.9 µM	54.9 µM	20.5 µM	44.5 µM
C[C@]12CC[C@H]3[C@@H](CCC4=CC(=O)CC[C@@H]43)[C@@H]1CC[C@@H]2OC(=O)CCc1ccccc1	15.2 µM	29.7 µM	24.4 µM	> 84.2 µM	16.2 µM	30.8 µM	18.8 µM	40.4 µM	20.5 µM	42 µM	20.3 µM	47.2 µM	42.8 µM	> 81.5 µM	19.1 µM	40.9 µM	16.5 µM	34 µM	19.9 µM	44.1 µM
Clc1cc(Cl)c(OCC#CI)cc1Cl	10.1 µM	23 µM	12.7 µM	27.9 µM	13.7 µM	26.6 µM	–	–	–	–	1.76 µM	3.88 µM	13.7 µM	27.2 µM	2.79 µM	9.66 µM	19.3 µM	40.8 µM	12.6 µM	26.7 µM
CN1CCN(Cc2ccc(NC(=O)c3cncc(C#Cc4cnc(N)c5ccncc45)c3)cc2C(F)(F)F)CC1	0.837 µM	> 50 µM	1.77 µM	9.18 µM	0.279 µM	1.7 µM	0.283 µM	6.32 µM	0.331 µM	2.89 µM	0.418 µM	3.46 µM	0.855 µM	> 50 µM	6.74 µM	16.5 µM	–	–	0.9 µM	6.79 µM
